Test results from US20060281714A1, “Combinations of a cathepsin k inhibitor and a bisphosphonate in the treatment of bone metastasis, tumor growth and tumor-induced bone loss” (priority 2003, published 2006).

Tested on: 4T1Luc2000 mouse mammary carcinoma cells
Experiment: Osteolytic activity in the 4T1Luc2000 assay (intra-tibial injection of tumor cells)
Assay type: in vivo, Athymic Balb\c nude, female mice
Settings: 50 mg/kg p.o. twice daily, in combination with Zoledronic Acid 100 ug/kg s.c. twice weekly; compared with Zoledronic Acid single treatment
Description: Intra-Tibial Injection of 4T1Luc2000 Mouse Mammary Carcinoma Cells:
Athymic Balb\c nude, female mice (Spezialzuchten, Stein, Switzerland) are anaesthetized by i.p. administration of […] ketarom: a mixture of 100 mg/kg Ketalar® 50 (Parker-Davis, Zurich, Switzerland) and 10 mg/kg xylazine (Rompun®, Bayer, Lyssach, Switzerland). Using a 30 gauze needle a cell suspension of […] in […] of HBSS (Invitrogen, Basel Switzerland) is injected through the articular cartilage and epiphysis into the tibia. In total, 48 animals in 6 groups, 8 animals each, are used in this study. […]
Peripheral Quantitative Computed Tomography (pQCT), End-Point Determination:
Total, cortical, and cancellous bone mass and geometry are monitored using an XCT-Research SA+ (Stratec-Norland, Pforzheim, Germany) fitted with a 0.5 mm collimator. […] Slices located 2, 3, 4, and 5 mm distal from the intercondylar tubercle in the proximal tibia metaphysis are analysed. […]
3D structural parameters of cancellous bone are measured non-invasively by microCT as described. […] A region of 200 slices at a position of 1 mm below the growth plate (secondary spongiosa) corresponding to the site of injection of the 4T1luc2000 cells is measured at a nominal resolution of approximately 15 μm (FIG. 3). […]
All results from the bone studies are expressed as mean *standard error (SEM). […]

For `CCCN1CCC(c2ccc(C(=O)NC3(C(=O)NCC#N)CCCCC3)cc2)CC1` [N-[1-(Cyanomethyl-carbamoyl)-cyclohexyl]-4-(1-propyl-piperidin-4-yl)-benzamide], the anti-osteolytic activity was “additive anti-osteolytic activity which is superior to Zoledronic Acid single treatment”.
